According to US20090191216A1, “Antibody or a fragment thereof, having neutralizing activity against HIV” (priority 2005, published 2009):
Bridges are numbered along the chain shown (N, C = ends). Where no end group is shown, it is not given here.

System: HIV-1 R5 strains from clades C and D
Assay: Inhibition of HIV-1 transcytosis across HEC-1 cell line with cyclized CDR3
Assay type: cell-based
Settings: cells preincubated 30 minutes at 17° C. with peptide; linear CDR3 as control

## cyclized CDR3 derived from Fab clone 43: CDR3 of clone 43 H chain (SEQ ID NO:1) with flanking residues, cyclized by disulfide bridge, SEQ ID NO:12 (CARDPRYYDAWSGPQLYYYYMDVWCKG; disulfide 1-25; listed as Homo Sapiens)
  inhibition of transcytosis: more than 50%
